Consider two molecules from US9597302B1, “Combination of dofetilide and mexiletine for the prevention and treatment of atrial fibrillation” (Heart Rhythm Solutions, Inc., priority 2015, dated 2017).

Entries after “also recorded” stand apart in the source; their conditions may differ.

In data set [1] the test system is arterially perfused rabbit atrial wedge preparations. Put plainly: Atrial effective refractory period (ERP) and loss of excitation in arterially perfused rabbit atrial wedge preparations. Conditions: for atrial preparations that lost excitation, drug alone: dofetilide (10 nM) or mexiletine (30 μM) used alone; for effect on atrial ERP, drug alone: each drug alone (FIG. 2). Here is the method: (§1) Rabbits (New Zealand White) of either sex, weighing 2.0-2.8 kg were injected with heparin (800 U/kg) via an ear vein and anesthetized by intramuscular injection of xylazine (5 mg/kg) and intravenous administration of ketamine HCl (30-35 mg/kg, i.v.). The chest was opened via a left thoracotomy, and the heart was excised and placed in a cardioplegic solution consisting of cold (4° C.) normal Tyrode's solution.
(§2) Surgical preparation of the rabbit right or left atrial wedge was essentially similar to that in Preclinical assessment of drug-induced proarrhythmias: role of the arterially perfused rabbit left ventricular wedge preparation,^18 herein incorporated by reference. Briefly, the atrial preparation was dissected from the rabbit heart and cannulated via a coronary artery branch, either from the right coronary artery (the right atrial wedge) or the left coronary artery (the left atrial wedge), and perfused with a cardioplegic solution. Similarly, the left ventricular wedge preparation was dissected from the rabbit heart and arterially cannulated via a branch of left coronary artery. The atrial or ventricular wedge preparation was then placed in a small tissue bath and arterially perfused with Tyrode's solution containing 4.0 mM K^+ buffered with 95% O2 and 5% CO2 at a temperature of 35.7±0.1° C. The preparations were paced at basic cycle lengths (BCL) of 300, 500, 1000 and 2000 ms.
Atrial effective refractory period (ERP) was measured by introducing an extrastimulus (S2) repeatedly every 10 pulses (S1) at two folds of the pacing threshold. […] In the preparations that lost excitation intermittently after drug interventions, the ERP was then considered to be equal to the S1-S1 interval.

In data set [2] the test system is arterially-perfused rabbit atrial wedge preparations. Description: Induction of atrial fibrillation by programming stimulation in arterially-perfused rabbit atrial wedge preparations. The note with it: for suppression of induction of atrial fibrillation: programming stimulation, concentrations of Table 1. Here is the method:
as §1, §2
Atrial fibrillation was induced by programming stimulation using single or double extrastimuli (S2 and S3). Basic cycle lengths (S1 and S1) of 1000 and 500 ms were used for induction of atrial fibrillation.

The test system of data set [3] is arterially-perfused rabbit left ventricular wedge preparations. Put plainly: Dofetilide-induced EAD, R-on-T extrasystoles and TdP in arterially-perfused rabbit left ventricular wedge preparations. As for the experimental part: as §1, §2
Two extracellular silver/silver chloride electrodes were placed on the endocardial or epicardial surfaces to record bipolar atrial electrograms (EGM). A transmural ECG was recorded in the ventricular wedge preparation using two extracellular silver/silver chloride electrodes placed in the bath 0.5 to 1.5 cm from the epicardial and endocardial surfaces of the preparation (Epi: “+” pole). Transmembrane action potential was recorded from the endocardium or epicardium using the floating glass microelectrodes. Atrial action potential duration at 90% repolarization (APD90) was used for data analysis.
Early afterdepolarization (EAD), EAD-dependent R-on-T extrasystoles and torsade de pointes (TdP) were induced by dofetilide in the rabbit left ventricular wedges which were paced at a BCL of 2000 ms and perfused with Tyrode's solution containing 3 mM K^+, which is equivalent to hypokalemia in humans. Lower K^+ potentiated the effect of dofetilide to induced EAD, R-on-T and TdP. The K^+ concentration in Tyrode's solution remained the same when the effect of mexiletine on dofetilide-induced EAD, R-on-T and TdP was examined.

For data set [4] the following is noted: literature refs 19-21; cited from earlier work.
The test system of data set [5] is arterially perfused rabbit atrial wedge preparations. Description: Atrial action potential duration (APD90) in arterially perfused rabbit atrial wedge preparations. Conditions: dofetilide 3 nM and 10 nM; BCL 1000 ms or 500 ms (FIG. 1). As for the experimental part: as §1
Surgical preparation of the rabbit right or left atrial wedge was essentially similar to that in Preclinical assessment of drug-induced proarrhythmias: role of the arterially perfused rabbit left ventricular wedge preparation,^18 herein incorporated by reference. […]
Two extracellular silver/silver chloride electrodes were placed on the endocardial or epicardial surfaces to record bipolar atrial electrograms (EGM). A transmural ECG was recorded in the ventricular wedge preparation using two extracellular silver/silver chloride electrodes placed in the bath 0.5 to 1.5 cm from the epicardial and endocardial surfaces of the preparation (Epi: “+” pole). Transmembrane action potential was recorded from the endocardium or epicardium using the floating glass microelectrodes. […]

Setting [6] is: dofetilide 10 nM, BCL 2000 ms, 3 mM K+.

For the molecule `Cc1cccc(C)c1OCC(C)N` (racemic) [mexiletine, (RS)-1-(2,6-dimethylphenoxy)propan-2-amine], in data set [1], the “atrial preparations that lost excitation, drug alone” value is listed as “none” and the “effect on atrial ERP, drug alone” value is given as “mildly to moderately prolonged”. Also, the “Induced Atrial Fibrillation (incidence)” value in data set [2] (mexiletine 10 μM) was 4 of 4 preparations. The “suppression of induction of atrial fibrillation” value in data set [2] is listed as “not”. In addition, the “reversibility of the effect on dofetilide-induced EAD, R-on-T and TdP” value in data set [3] (after removal of mexiletine EAD, R-on-T reoccurred) is on record as “washable”. In data set [3] (mexiletine 10 μM, low (3 mM) K+ (FIG. 6)), the “effect on EAD, R-on-T and TdP induced by 10 nM dofetilide” value is “effectively abolished”. The “therapeutical plasma concentration in humans” value in data set [4] was approximately 10 µM.

As for `CN(CCOc1ccc(NS(C)(=O)=O)cc1)CCc1ccc(NS(C)(=O)=O)cc1` [dofetilide, N-[4-(2-{[2-(4-methanesulfonamidophenoxy)ethyl](methyl)amino}ethyl)phenyl] methanesulfonamide], the “effect on atrial APD90” value in data set [5] is “significantly increased”. For the same molecule, in data set [1], the “atrial preparations that lost excitation, drug alone” value was “none” and the “effect on atrial ERP, drug alone” value is on record as “mildly to moderately prolonged”. For the same molecule, the “Induced Atrial Fibrillation (incidence)” value in data set [2] (dofetilide 3 nM) was 3 of 6 preparations. The “effect on atrial fibrillation readily induced by single stimuli” value in data set [2] (one atrial wedge preparation, dofetilide alone 10 nM and 30 nM (FIG. 5)) is “failed to suppress induction of atrial fibrillation and premature beats; also recorded: reduced only duration and incidences of atrial fibrillation”. Moreover, the “suppression of induction of atrial fibrillation” value in data set [2] is on record as “partially suppressed”. In data set [3] (setting [6]), the “EAD (incidence)” value is on record as 7 of 7, the “R-on-T (incidence)” value is reported as 5 of 7 and the “TdP (incidence)” value is given as 1 of 7. Also, the “therapeutical plasma concentration in humans” value in data set [4] was approximately 0.003 µM.
